Where two headings read alike, the source gives them in different places.
How the values were obtained:
Test in all cases: SelectScreen kinase specificity survey
Assay type in all cases: biochemical
AKT1 (PKB alpha) = biological target: T1, AKT1 (PKB alpha) (Homo sapiens, UniProt P31749); conditions: estimated, abridged dose response curve, read-out: Kinase inhibitory activity EC50
T1 construct: purchased Invitrogen (SelectScreen platform)
Description: (§1) Testing of the compounds described in this invention was carried out using the SelectScreen™ platform from Invitrogen, Inc. (Carlsbad. Calif., USA) and the details of its performance are readily viewed via the web by linking to: http://www.invitrogen.com/downloads/SelectScrn_Brochure.pdf.
(§2) Briefly, the approach is based on treating each specific kinase with a unique substrate and optical reporter system in the presence of ATP at 100 micromolar. In controls, the substrate is phosphorylated and a baseline optimal response is recorded.
(§3) The compounds were then re-tested by adding graded amounts of putative inhibitor which were added in 5 separate increments to generate a dose response curve. The latter is obtained by fitting to a 4 parameter Hill equation, a sigmoid saturation equation.
(§4) The same assay system described in Example 2 can be applied in the determination of kinase specificity. It is well understood by medicinal chemists in the development of kinase inhibitors that the resulting molecules often lack specificity. Not only are homologous kinases inhibited by the same class of compounds, but also non-homologous kinases can be affected by allosteric, induced, activated vs inactivated conformation, and protein folding interactions with the putative inhibitor, which otherwise had been designed to be specific. These off target effects are difficult to predict and can only be ruled in or out by empirically surveying a large set of kinases. It is also understood that changes to scaffolds and variation in their chemical decorations may influence the extent of promiscuity in the patterns of kinase inhibition across kinase classes.
(§5) The following experiment was conducted to address this issue. The indazole compound (IV), described in Example 2 and representative of the new genus was tested along with Symadex against a panel of 230 kinases representative of all known kinases classes. Included in the survey were the Flt3, its mutant, and close relatives in the Class III receptor tyrosine kinase class, together with serine-threonine kinases and atypical kinases many of which share no homology of active site with Flt3 as shown, for example, in the respective “genecard” for each kinase and available for inspection at on the web at http://www.genecards.org/.
(§6) Table 3 lists the estimated EC50 values from an abridged dose response curve for Symadex (C-1311) and CF-123. The kinases are listed alphabetically by Group and Family.

BMX = biological target: T2, BMX (Homo sapiens, UniProt P51813); conditions: estimated, abridged dose response curve, read-out: Kinase inhibitory activity EC50
T2 construct: purchased Invitrogen (SelectScreen)
Description: as §1, §2, §3, §4, §5, §6

CSNK1G1 (CK1 gamma 1) = biological target: T3, CSNK1G1 (CK1 gamma 1) (Homo sapiens, UniProt Q9HCP0); conditions: estimated, abridged dose response curve, read-out: Kinase inhibitory activity EC50
T3 construct: purchased Invitrogen (SelectScreen platform)
Description: as §1, §2, §3, §4, §5, §6

DYRK1B = biological target: T4, DYRK1B (Homo sapiens, UniProt Q9Y463); conditions: estimated, abridged dose response curve, read-out: Kinase inhibitory activity EC50
T4 construct: purchased Invitrogen (SelectScreen platform)
Description: as §1, §2, §3, §4, §5, §6

EPHA4 = biological target: T5, EPHA4 (Homo sapiens, UniProt P54764); conditions: estimated, abridged dose response curve, read-out: Kinase inhibitory activity EC50
T5 construct: purchased Invitrogen (SelectScreen service)
Description: as §1, §2, §3, §4, §5, §6

FER = biological target: T6, FER (Homo sapiens, UniProt P16591); conditions: estimated, abridged dose response curve, read-out: Kinase inhibitory activity EC50
T6 construct: purchased Invitrogen (SelectScreen service)
Description: as §1, §2, §3, §4, §5, §6

FGFR1 = biological target: T7, FGFR1 (Homo sapiens, UniProt P11362); conditions: estimated, abridged dose response curve, read-out: Kinase inhibitory activity EC50
T7 construct: purchased Invitrogen (SelectScreen service)
Description: as §1, §2, §3, §4, §5, §6

FGFR3 K650E = biological target: T8, FGFR3 K650E (Homo sapiens, UniProt P22607, K650E); conditions: estimated, abridged dose response curve, read-out: Kinase inhibitory activity EC50
T8 construct: purchased Invitrogen (SelectScreen platform)
Description: as §1, §2, §3, §4, §5, §6

GRK6 = biological target: T9, GRK6 (Homo sapiens, UniProt P43250)
T9 construct: purchased Invitrogen (SelectScreen platform)
Description: as §1, §2, §3, §4, §5, §6

HCK = biological target: T10, HCK (Homo sapiens, UniProt P08631); conditions: estimated, abridged dose response curve, read-out: Kinase inhibitory activity EC50
T10 construct: purchased Invitrogen (SelectScreen)
Description: as §1, §2, §3, §4, §5, §6

HIPK4 = biological target: T11, HIPK4 (Homo sapiens, UniProt Q8NE63); conditions: estimated, abridged dose response curve, read-out: Kinase inhibitory activity EC50
T11 construct: purchased Invitrogen (SelectScreen platform)
Description: as §1, §2, §3, §4, §5, §6

MAPK10 (JNK3) = biological target: T12, MAPK10 (JNK3) (Homo sapiens, UniProt P53779); conditions: estimated, abridged dose response curve, read-out: Kinase inhibitory activity EC50
T12 construct: purchased Invitrogen (SelectScreen platform)
Description: as §1, §2, §3, §4, §5, §6

MAPK13 (p38 delta) = biological target: T13, MAPK13 (p38 delta) (Homo sapiens, UniProt O15264); conditions: estimated, abridged dose response curve, read-out: Kinase inhibitory activity EC50
T13 construct: purchased Invitrogen, Inc. (SelectScreen service)
Description: as §1, §2, §3, §4, §5, §6

MAPK3 (ERK1) = biological target: T14, MAPK3 (ERK1) (Homo sapiens, UniProt P27361); conditions: estimated, abridged dose response curve, read-out: Kinase inhibitory activity EC50
T14 construct: purchased Invitrogen, Inc. (SelectScreen service)
Description: as §1, §2, §3, §4, §5, §6

MAPK9 (JNK2) = biological target: T15, MAPK9 (JNK2) (Homo sapiens, UniProt P45984); conditions: estimated, abridged dose response curve, read-out: Kinase inhibitory activity EC50
T15 construct: purchased Invitrogen, Inc. (SelectScreen service)
Description: as §1, §2, §3, §4, §5, §6

MAPKAPK5 (PRAK) = biological target: T16, MAPKAPK5 (PRAK) (Homo sapiens, UniProt Q8IW41); conditions: estimated, abridged dose response curve, read-out: Kinase inhibitory activity EC50
T16 construct: purchased Invitrogen, Inc. (SelectScreen platform)
Description: as §1, §2, §3, §4, §5, §6

PAK2 (PAK65) = biological target: T17, PAK2 (PAK65) (Homo sapiens, UniProt Q13177); conditions: estimated, abridged dose response curve, read-out: Kinase inhibitory activity EC50
T17 construct: purchased Invitrogen (SelectScreen platform)
Description: as §1, §2, §3, §4, §5, §6

PLK1 = biological target: T18, PLK1 (Homo sapiens, UniProt P53350); conditions: estimated, abridged dose response curve, read-out: Kinase inhibitory activity EC50
T18 construct: purchased Invitrogen, Inc. (SelectScreen service)
Description: as §1, §2, §3, §4, §5, §6

PLK2 = biological target: T19, PLK2 (Homo sapiens, UniProt Q9NYY3); conditions: estimated, abridged dose response curve, read-out: Kinase inhibitory activity EC50
T19 construct: purchased Invitrogen, Inc. (SelectScreen service)
Description: as §1, §2, §3, §4, §5, §6

PRKD2 (PKD2) = biological target: T20, PRKD2 (PKD2) (Homo sapiens, UniProt Q9BZL6); conditions: estimated, abridged dose response curve, read-out: Kinase inhibitory activity EC50
T20 construct: purchased Invitrogen, Inc. (SelectScreen platform)
Description: as §1, §2, §3, §4, §5, §6

PTK2B (FAK2, PYK2) = biological target: T21, PTK2B (FAK2, PYK2) (Homo sapiens, UniProt Q14289); conditions: estimated, abridged dose response curve, read-out: Kinase inhibitory activity EC50
T21 construct: purchased Invitrogen (SelectScreen service)
Description: as §1, §2, §3, §4, §5, §6

PTK6 (Brk) = biological target: T22, PTK6 (Brk) (Homo sapiens, UniProt Q13882); conditions: estimated, abridged dose response curve, read-out: Kinase inhibitory activity EC50
T22 construct: purchased Invitrogen (SelectScreen)
Description: as §1, §2, §3, §4, §5, §6

RET = biological target: T23, RET (Homo sapiens, UniProt P07949); conditions: estimated, abridged dose response curve, read-out: Kinase inhibitory activity EC50
T23 construct: purchased Invitrogen (SelectScreen)
Description: as §1, §2, §3, §4, §5, §6

RET V804L = biological target: T24, RET V804L (Homo sapiens, UniProt P07949, V804L); conditions: estimated, abridged dose response curve, read-out: Kinase inhibitory activity EC50
T24 construct: purchased Invitrogen (SelectScreen)
Description: as §1, §2, §3, §4, §5, §6

RPS6KA5 (MSK1) = biological target: T25, RPS6KA5 (MSK1) (Homo sapiens, UniProt O75582); conditions: estimated, abridged dose response curve, read-out: Kinase inhibitory activity EC50
T25 construct: purchased Invitrogen, Inc. (SelectScreen platform)
Description: as §1, §2, §3, §4, §5, §6

SGKL (SGK3) = biological target: T26, SGKL (SGK3) (Homo sapiens, UniProt Q96BR1); conditions: estimated, abridged dose response curve, read-out: Kinase inhibitory activity EC50
T26 construct: purchased Invitrogen, Inc. (SelectScreen platform)
Description: as §1, §2, §3, §4, §5, §6

STK23 (MSSK1) = biological target: T27, STK23 (MSSK1) (Homo sapiens, UniProt Q9UPE1); conditions: estimated, abridged dose response curve, read-out: Kinase inhibitory activity EC50
T27 construct: purchased Invitrogen, Inc. (SelectScreen service)
Description: as §1, §2, §3, §4, §5, §6

Measured: EC50

T21 sequence (Q14289 whole entry): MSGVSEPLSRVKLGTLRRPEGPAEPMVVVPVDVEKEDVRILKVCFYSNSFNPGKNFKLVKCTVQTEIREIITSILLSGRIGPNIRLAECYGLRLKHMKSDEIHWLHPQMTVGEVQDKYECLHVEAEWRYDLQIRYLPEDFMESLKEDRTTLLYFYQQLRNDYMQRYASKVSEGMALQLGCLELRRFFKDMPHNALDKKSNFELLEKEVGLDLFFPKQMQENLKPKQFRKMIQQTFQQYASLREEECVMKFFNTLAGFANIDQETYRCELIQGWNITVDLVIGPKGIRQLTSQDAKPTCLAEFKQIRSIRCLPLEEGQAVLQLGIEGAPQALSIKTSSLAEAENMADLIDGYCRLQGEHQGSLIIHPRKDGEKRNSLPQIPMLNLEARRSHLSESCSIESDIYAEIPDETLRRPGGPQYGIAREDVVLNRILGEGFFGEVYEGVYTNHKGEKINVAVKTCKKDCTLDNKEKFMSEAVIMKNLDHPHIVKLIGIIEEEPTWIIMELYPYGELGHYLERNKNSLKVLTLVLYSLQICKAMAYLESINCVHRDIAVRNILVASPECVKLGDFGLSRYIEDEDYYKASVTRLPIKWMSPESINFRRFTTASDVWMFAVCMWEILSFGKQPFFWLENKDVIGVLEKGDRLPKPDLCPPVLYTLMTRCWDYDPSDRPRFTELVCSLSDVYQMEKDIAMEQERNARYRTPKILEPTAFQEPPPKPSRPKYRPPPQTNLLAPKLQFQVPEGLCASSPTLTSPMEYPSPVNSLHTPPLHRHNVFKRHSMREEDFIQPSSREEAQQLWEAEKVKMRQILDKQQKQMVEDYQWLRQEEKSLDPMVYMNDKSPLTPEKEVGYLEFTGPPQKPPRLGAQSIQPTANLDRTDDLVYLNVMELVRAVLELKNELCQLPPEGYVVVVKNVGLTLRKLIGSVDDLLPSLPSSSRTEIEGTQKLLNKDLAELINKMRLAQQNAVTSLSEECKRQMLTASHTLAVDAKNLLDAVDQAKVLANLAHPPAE
T24 sequence (P07949 29-1114 V804L): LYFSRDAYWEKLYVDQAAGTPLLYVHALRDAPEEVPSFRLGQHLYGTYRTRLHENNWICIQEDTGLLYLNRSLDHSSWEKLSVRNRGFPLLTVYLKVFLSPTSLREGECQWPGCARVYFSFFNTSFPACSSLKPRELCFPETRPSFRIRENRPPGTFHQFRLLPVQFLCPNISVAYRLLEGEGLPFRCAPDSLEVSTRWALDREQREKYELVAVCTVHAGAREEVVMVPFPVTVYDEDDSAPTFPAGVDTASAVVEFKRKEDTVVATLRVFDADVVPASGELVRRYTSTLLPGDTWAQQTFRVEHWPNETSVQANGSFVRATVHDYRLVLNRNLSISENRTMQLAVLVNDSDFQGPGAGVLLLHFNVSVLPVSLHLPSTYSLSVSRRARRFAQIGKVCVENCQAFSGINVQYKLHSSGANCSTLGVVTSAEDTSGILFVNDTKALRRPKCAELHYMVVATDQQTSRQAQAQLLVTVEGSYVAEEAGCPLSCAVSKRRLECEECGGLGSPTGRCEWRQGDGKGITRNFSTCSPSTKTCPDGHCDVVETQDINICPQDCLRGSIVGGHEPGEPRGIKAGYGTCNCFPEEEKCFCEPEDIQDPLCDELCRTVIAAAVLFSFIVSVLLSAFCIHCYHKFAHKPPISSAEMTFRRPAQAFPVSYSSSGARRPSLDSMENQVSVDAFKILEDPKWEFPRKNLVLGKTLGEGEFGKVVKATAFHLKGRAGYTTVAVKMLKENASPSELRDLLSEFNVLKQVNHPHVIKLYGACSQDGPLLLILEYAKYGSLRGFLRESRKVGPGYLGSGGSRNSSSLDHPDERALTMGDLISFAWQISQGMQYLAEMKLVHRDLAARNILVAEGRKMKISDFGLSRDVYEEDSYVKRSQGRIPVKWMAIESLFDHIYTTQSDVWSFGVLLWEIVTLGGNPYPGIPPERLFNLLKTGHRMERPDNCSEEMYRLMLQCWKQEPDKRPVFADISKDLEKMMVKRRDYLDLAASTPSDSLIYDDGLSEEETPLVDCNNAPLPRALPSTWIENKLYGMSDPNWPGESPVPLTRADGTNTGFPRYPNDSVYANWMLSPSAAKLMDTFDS
T6 sequence (P16591 whole entry): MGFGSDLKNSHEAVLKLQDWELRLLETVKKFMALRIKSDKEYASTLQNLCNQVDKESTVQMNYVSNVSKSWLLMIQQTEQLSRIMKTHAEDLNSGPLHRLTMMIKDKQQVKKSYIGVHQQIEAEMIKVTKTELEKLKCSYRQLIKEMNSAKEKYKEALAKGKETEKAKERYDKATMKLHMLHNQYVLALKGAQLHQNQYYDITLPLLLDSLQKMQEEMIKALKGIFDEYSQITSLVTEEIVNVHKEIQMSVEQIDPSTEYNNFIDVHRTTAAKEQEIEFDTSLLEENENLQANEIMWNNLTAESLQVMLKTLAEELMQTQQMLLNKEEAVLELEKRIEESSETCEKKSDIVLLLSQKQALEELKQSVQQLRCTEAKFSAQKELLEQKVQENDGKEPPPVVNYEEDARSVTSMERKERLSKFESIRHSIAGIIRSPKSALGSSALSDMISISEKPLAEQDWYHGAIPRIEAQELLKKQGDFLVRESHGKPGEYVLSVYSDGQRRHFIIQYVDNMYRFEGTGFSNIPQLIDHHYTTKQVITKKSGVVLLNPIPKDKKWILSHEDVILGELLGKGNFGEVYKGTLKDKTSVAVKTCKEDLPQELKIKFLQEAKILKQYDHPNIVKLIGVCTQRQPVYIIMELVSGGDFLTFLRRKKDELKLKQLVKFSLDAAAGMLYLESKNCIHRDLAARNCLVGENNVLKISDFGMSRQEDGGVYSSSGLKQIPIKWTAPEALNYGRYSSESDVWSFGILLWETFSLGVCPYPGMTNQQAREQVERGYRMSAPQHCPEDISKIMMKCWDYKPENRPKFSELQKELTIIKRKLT
T15 sequence (P45984 whole entry): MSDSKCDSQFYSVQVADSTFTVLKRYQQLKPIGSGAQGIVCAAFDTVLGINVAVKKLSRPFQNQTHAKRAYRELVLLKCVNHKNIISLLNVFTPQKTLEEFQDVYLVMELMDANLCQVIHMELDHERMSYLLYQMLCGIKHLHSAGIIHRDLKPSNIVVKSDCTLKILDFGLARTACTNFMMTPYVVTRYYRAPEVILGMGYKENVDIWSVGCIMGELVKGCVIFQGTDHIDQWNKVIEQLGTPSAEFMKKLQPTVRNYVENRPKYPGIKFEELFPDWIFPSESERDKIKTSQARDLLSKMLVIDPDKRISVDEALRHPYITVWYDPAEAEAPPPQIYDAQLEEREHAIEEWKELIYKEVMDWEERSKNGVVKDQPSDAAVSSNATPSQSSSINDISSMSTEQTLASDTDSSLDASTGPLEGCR
T7 sequence (P11362 22-822): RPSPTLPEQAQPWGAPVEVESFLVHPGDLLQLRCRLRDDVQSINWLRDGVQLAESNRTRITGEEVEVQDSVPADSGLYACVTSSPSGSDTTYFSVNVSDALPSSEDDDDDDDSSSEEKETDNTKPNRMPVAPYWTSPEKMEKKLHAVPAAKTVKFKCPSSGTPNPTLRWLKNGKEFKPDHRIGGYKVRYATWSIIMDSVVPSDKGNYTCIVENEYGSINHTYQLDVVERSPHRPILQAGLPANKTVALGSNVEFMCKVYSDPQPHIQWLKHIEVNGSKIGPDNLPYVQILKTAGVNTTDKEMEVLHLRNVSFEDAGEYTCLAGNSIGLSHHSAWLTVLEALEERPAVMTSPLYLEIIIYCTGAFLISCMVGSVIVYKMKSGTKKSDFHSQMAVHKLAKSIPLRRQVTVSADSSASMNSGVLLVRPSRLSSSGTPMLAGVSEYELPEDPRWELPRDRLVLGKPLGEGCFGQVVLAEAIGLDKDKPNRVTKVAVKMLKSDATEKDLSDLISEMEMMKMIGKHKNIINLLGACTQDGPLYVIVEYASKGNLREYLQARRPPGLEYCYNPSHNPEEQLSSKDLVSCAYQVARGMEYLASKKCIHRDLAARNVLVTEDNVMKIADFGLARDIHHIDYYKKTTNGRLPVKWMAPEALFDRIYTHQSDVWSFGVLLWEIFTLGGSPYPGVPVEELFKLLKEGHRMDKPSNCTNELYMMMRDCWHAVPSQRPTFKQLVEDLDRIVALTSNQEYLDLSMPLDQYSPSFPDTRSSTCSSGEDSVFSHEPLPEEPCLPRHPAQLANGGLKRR
T22 sequence (Q13882 whole entry): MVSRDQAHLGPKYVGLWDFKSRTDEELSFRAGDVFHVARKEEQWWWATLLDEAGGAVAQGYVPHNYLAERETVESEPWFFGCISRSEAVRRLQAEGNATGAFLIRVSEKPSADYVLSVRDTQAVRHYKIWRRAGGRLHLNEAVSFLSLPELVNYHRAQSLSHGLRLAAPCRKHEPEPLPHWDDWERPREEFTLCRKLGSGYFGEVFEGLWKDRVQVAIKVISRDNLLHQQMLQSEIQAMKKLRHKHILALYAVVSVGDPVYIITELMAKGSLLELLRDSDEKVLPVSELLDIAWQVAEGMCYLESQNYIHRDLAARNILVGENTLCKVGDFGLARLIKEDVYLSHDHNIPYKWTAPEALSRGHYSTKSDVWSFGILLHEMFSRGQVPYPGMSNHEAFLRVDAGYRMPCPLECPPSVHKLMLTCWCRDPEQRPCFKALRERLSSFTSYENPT
T13 sequence (O15264 whole entry): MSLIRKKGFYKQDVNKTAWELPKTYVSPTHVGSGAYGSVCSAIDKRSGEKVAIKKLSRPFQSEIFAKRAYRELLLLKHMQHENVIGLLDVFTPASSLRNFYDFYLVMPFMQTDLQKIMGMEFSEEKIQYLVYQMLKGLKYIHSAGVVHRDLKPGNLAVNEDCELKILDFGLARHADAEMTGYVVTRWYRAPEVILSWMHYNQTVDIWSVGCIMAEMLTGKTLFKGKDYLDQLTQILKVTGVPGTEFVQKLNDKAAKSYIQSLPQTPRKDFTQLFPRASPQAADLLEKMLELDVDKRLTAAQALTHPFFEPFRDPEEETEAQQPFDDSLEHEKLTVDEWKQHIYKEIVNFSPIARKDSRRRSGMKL
T23 sequence (P07949 29-1114): as the sequence (P07949 29-1114 V804L) above, with L776V counted along it

CCN(CC)CCNc1ccc2ncn3c4ccc(O)cc4c(=O)c1c23 [Symadex, 5-(2-(diethylamino)ethylamino)-8-hydroxy-6H-imidazo[4,5,1-de]acridin-6-one, reference compound]
3.98 µM: HCK
0.991 µM: DYRK1B
> 5 µM: AKT1 (PKB alpha) | BMX | CSNK1G1 (CK1 gamma 1) | EPHA4 | FER | FGFR3 K650E | GRK6 | MAPK10 (JNK3) | MAPK13 (p38 delta) | MAPK3 (ERK1) | MAPK9 (JNK2) | MAPKAPK5 (PRAK) | PAK2 (PAK65) | PLK1 | PLK2 | PTK2B (FAK2, PYK2) | PTK6 (Brk) | RPS6KA5 (MSK1) | SGKL (SGK3) | STK23 (MSSK1)
1.12 µM: RET
0.292 µM: PRKD2 (PKD2)
2.39 µM: FGFR1
1.82 µM: HIPK4
0.735 µM: RET V804L

CN(C)CCCNc1ccc2ncn3c4ccc5[nH]ncc5c4c(=O)c1c23 [Compound (IV)]
1.31 µM: HIPK4
0.82 µM: DYRK1B
2.28 µM: HCK
0.587 µM: RET
> 5 µM: AKT1 (PKB alpha) | CSNK1G1 (CK1 gamma 1) | EPHA4 | FER | FGFR3 K650E | GRK6; GRK6, estimated, abridged dose response curve, read-out: Kinase inhibitory activity EC50 | MAPK13 (p38 delta) | MAPK3 (ERK1) | MAPK9 (JNK2) | MAPKAPK5 (PRAK) | PAK2 (PAK65) | PLK1 | PLK2 | PTK2B (FAK2, PYK2) | PTK6 (Brk) | RPS6KA5 (MSK1) | SGKL (SGK3) | STK23 (MSSK1)
2.81 µM: MAPK10 (JNK3)
0.759 µM: PRKD2 (PKD2)
0.864 µM: RET V804L
3.57 µM: FGFR1
3.23 µM: BMX

— patent US20100292231A1, “Indazole Compounds for Treating Inflammatory Disorders, Demyelinating Disorders and Cancers” (priority 2007, published 2010)
